The source of these data is EP0293826A2, “Therapeutic and prophylactic application of sulfated polysaccharides against AIDS” (priority 1987, dated 1988).

For the first experiment, the system named is human immuno deficiency virus (HIV).
Experiment: not given
As to conditions: cited from earlier work.
With `Cc1ccc(C(=O)Nc2ccc(S(=O)(=O)O)c3cc(S(=O)(=O)O)cc(S(=O)(=O)O)c23)cc1NC(=O)c1cccc(NC(=O)Nc2cccc(C(=O)Nc3cc(C(=O)Nc4ccc(S(=O)(=O)O)c5cc(S(=O)(=O)O)cc(S(=O)(=O)O)c45)ccc3C)c2)c1` [suramin], the “concentration completely protecting ATH8 cells against the cytopathogenicity of HIV” value was 50 µg/mL.

On to `Cc1cc(-c2ccc(/N=N/c3ccc4c(S(=O)(=O)O)cc(S(=O)(=O)O)c(N)c4c3O)c(C)c2)ccc1/N=N/c1ccc2c(S(=O)(=O)O)cc(S(=O)(=O)O)c(N)c2c1O` [Evans Blue], for which the “concentration completely protecting ATH8 cells against the cytopathogenicity of HIV” value was 25 µg/mL.

With `Cc1cn([C@H]2C[C@H](N=[N+]=[N-])[C@@H](CO)O2)c(=O)[nH]c1=O` [AZT, 3 -azido-2',3 -dideoxythymidine], the “concentration completely protecting ATH8 cells against the cytopathogenicity of HIV” value was 1-5 µ.M.

Another experiment has as its system HIV-1. Briefly: Inhibition of HIV-1 replication in MT-4 cells (trypan blue exclusion, day 5). It counts as cell-based.
Conditions: not given
The method, then: MT-4 cells were suspended at 5 x 10^s cells per ml and infected with HIV-1 at 1000 CCIDso per ml (1 CCIDso being the 50% cell culture infective dose). After 2 h-incubation at 37° C, 5 x 10^4 cells per 100 µl were brought into each well of a flat-bottomed 96-well plastic microtiter tray containing 100 µl of various dilutions of the test compounds. After 5 days incubation at 37° C, the number of viable cells was determined microscopically in an hemacytometer by trypan blue exclusion. Anti-HIV-1 activity of the compounds was also determined by monitoring viral antigen expression in HUT-78 cells at day 14 after infection, measured by indirect immunifluorescence, using a polyclonal antibody as probe.
With `N[C@H]1C(O)O[C@H](CO)[C@@H](O)[C@@H]1OS(=O)(=O)O` (stereo partly shown) [glucosamine 3-sulfate, glucosamine-3-sulfate], the “concentration at which no anti-HIV-1 activity was shown” value was > 125 µg/mL.

Turning to “glucosamine-2-sulfate [glucosamine 2-sulfate]”, the “concentration at which no anti-HIV-1 activity was shown” value is > 125 µg/mL.

Turning to “glucosamine-2,3-disulfate [glucosamine 2,3-disulfate]”, the “concentration at which no anti-HIV-1 activity was shown” value is > 125 µg/mL.

On to `N[C@H]1C(O)O[C@H](COS(=O)(=O)O)[C@@H](O)[C@@H]1O` (stereo partly shown) [glucosamine 6-sulfate, glucosamine-6-sulfate], for which the “concentration at which no anti-HIV-1 activity was shown” value was > 125 µg/mL.
